Source: patent US7781445B2, “Synthesis of indenoisoquinoliniums and methods of use” (Purdue Research Foundation, priority 2005, dated 2010)
pIC50: −log10 of the molar value. Where two headings read alike, the source gives them in different places.

Tests used:
[1] = system: all human cancer cell lines successfully tested (approximately 55); assay: COMPARE screening, mean graph midpoint (MGM); type: cell-based; conditions: average GI50 over all cell lines tested, values outside 10^-8 to 10^-4 molar taken as the limits, read-out: MGM (mean graph midpoint for growth inhibition); for MGM (mean GI50 across cell lines): Homo sapiens
From the text: (§1) This in vitro prescreening system is based on the measurement of anticancer cytotoxicity against human cancer cell line panels consisting of approximately 60 cell lines of major human cancers (including leukemia, and slower growing tumor cells such as lung, colon, breast, skin, kidney, etc.) and is referred hereinafter as “COMPARE” screening.
(§2) COMPARE screening. The compounds described herein were examined for antiproliferative activity against the human cancer cell lines in the National Cancer Institute screen (COMPARE screening), in which the activity of each compound was evaluated with approximately 55 different cancer cell lines of diverse tumor origins. […] Therefore, the MGM value represents an overall assessment of toxicity of the compound across numerous cell lines.

MDA-MB-435 = assay: COMPARE screening (NCI), GI50 in MDA-MB-435
From the text: as §1, §2

HCT-116 = assay: COMPARE screening (NCI), GI50 in HCT-116
From the text: as §1, §2

SF-539 = assay: COMPARE screening (NCI), GI50 in SF-539; conditions: Homo sapiens, read-out: Cytotoxicity GI50, CNS SF-539
From the text: as §1, §2

UACC-62 = assay: COMPARE screening (NCI), GI50 in UACC-62
From the text: as §1, §2

DU-145 = assay: COMPARE screening (NCI), GI50 in DU-145
From the text: as §1, §2

HOP-62 = assay: COMPARE screening (NCI), GI50 in HOP-62
From the text: as §1, §2

SN12C = assay: COMPARE screening (NCI), GI50 in SN12C
From the text: as §1, §2

topoisomerase I = molecular target: T1, topoisomerase I (Homo sapiens, UniProt P11387); assay: Topoisomerase I-mediated DNA cleavage, 3'-end-labeled 161 bp pBluescript SK(-) fragment; type: biochemical; conditions: for top1-mediated DNA cleavage band at site 37 / top1-mediated DNA cleavage band at site 44: FIG. 1; for top1-mediated DNA cleavage band at site 37: cleavage site 37; for top1-mediated DNA cleavage band at site 44: cleavage site 44; for Top 1 Cleavage: tested at concentrations ranging up to 10 μM, semi-quantitative relative to compound A
T1 sequence (P11387 1-765): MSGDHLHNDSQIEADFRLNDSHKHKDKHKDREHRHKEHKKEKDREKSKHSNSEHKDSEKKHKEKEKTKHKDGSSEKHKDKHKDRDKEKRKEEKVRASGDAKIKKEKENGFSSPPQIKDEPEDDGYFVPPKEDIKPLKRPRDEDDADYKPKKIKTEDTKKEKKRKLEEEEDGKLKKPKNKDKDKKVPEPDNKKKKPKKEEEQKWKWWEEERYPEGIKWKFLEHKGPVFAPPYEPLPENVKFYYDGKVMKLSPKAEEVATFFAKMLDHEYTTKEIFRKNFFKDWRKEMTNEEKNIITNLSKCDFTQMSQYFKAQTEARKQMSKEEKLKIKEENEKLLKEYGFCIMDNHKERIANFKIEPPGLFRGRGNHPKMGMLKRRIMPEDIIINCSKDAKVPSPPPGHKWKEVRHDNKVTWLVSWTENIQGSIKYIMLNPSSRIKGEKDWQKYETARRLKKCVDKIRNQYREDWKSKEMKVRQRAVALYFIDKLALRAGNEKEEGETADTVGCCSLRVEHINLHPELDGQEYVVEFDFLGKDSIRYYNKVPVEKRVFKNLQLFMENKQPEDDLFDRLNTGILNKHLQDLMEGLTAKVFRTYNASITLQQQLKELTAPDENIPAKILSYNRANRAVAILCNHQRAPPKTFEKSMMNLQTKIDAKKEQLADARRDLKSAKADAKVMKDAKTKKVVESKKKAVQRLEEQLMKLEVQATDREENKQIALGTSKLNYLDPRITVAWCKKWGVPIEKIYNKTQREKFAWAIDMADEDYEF
Description: The assays were carried out at room temperature for 30 min and stopped by adding 0.5% SDS. […] Topoisomerase I was present in all reaction mixtures except for the one corresponding to the first lane.
Induction of DNA cleavage.
Labeling reactions were followed by phenol-chloroform extraction and ethanol precipitation. […] Reactions were terminated by adding 0.5% SDS.
DNA Cleavage Semiquantitative Analysis. […] The rubberband baseline correction was applied with band detection sensitivity set at 90.

OVCAR-3 = assay: COMPARE screening (NCI), GI50 in OVCAR-3
From the text: as §1, §2

[2] = Homo sapiens, HCT-116, read-out: Cytotoxicity GI50, colon HCT-116, colon, HCT-116, concentration corresponding to 50% growth inhibition
[3] = Homo sapiens, UACC-62, read-out: Cytotoxicity GI50, melanoma UACC-62, melanoma, UACC-62, concentration corresponding to 50% growth inhibition
[4] = Homo sapiens, DU-145, read-out: Cytotoxicity GI50, prostate DU-145, prostate, DU-145, concentration corresponding to 50% growth inhibition
[5] = Homo sapiens, MDA-MB-435, read-out: Cytotoxicity GI50, breast MDA-MB-435, breast, MDA-MB-435, concentration corresponding to 50% growth inhibition
[6] = Homo sapiens, HOP-62, read-out: Cytotoxicity GI50, lung HOP-62, lung, HOP-62, concentration corresponding to 50% growth inhibition
[7] = Homo sapiens, SN12C, read-out: Cytotoxicity GI50, renal SN12C, renal, SN12C, concentration corresponding to 50% growth inhibition
[8] = Homo sapiens, OVCAR-3, read-out: Cytotoxicity GI50, ovarian OVCAR-3, ovarian, OVCAR-3, concentration corresponding to 50% growth inhibition

Row | SMILES | GI50 (HCT-116; [2]) | GI50 (SF-539) | GI50 (UACC-62; [3]) | GI50 (DU-145; [4]) | GI50 (MDA-MB-435; [5]) | GI50 (HOP-62; [6]) | GI50 (SN12C; [7]) | GI50 (OVCAR-3; [8]) | MGM (mean GI50 across cell lines) [1] | Top 1 Cleavage (topoisomerase I; Table 1) | other results
1 | COc1cc2c3c(n(C)c(=O)c2cc1OC)-c1cc2c(cc1C3=O)OCO2 [A, reference compound] | – | – | – | – | – | – | – | – | – | – | pIC50 [1]: 4.70; GI50 (MDA-MB-435): 96 µM
2 | CC[C@@]1(O)C(=O)OCc2c1cc1n(c2=O)Cc2cc3ccccc3nc2-1 [B, camptothecin, reference compound] | 0.03 µM | 0.01 µM | 0.01 µM | 0.01 µM | 0.04 µM | 0.01 µM | 0.02 µM | – | – | – | –
3 | COc1cc2c3c(n(CCCNCCO)c(=O)c2cc1OC)-c1cc2c(cc1C3=O)OCO2 [C, reference compound] | – | – | – | – | – | – | – | – | – | – | top1-mediated DNA cleavage band at site 37 (topoisomerase I): not seen; top1-mediated DNA cleavage band at site 44 (topoisomerase I): observed
4 | COc1cc2c[n+](CCCN)c3c(c2cc1OC)C(=O)c1cc2c(cc1-3)OCO2 [Compound 7ab, 6-(3-Amino-1-propyl)-2,3-dimethoxy-8,9-(methylenedioxy)-1′-oxo-indeno[1,2-c]isoquinolinium Chloride] | – | – | – | – | – | – | – | – | – | – | pIC50 [1]: 6.78
5 | COc1cc2c(cc1OC)-c1ncc3cc(OC)c(OC)cc3c1C2.Cl [Compound 9aa, 2,3,8,9-Tetramethoxy-11H-indeno[1,2-c]isoquinoline Hydrochloride] | > 50 µM | > 50 µM | > 50 µM | > 50 µM | > 50 µM | – | > 50 µM | > 50 µM | 44.7 µM | ++ (++, similar activity as compound A) | top1-mediated DNA cleavage band at site 37 (topoisomerase I): not seen; top1-mediated DNA cleavage band at site 44 (topoisomerase I): observed
6 | COC1=C(OC)Cc2c3c(ncc2=C1)=c1cc2c(cc1=C3)OCO2.Cl [Compound 9ab, 2,3-Dimethoxy-8,9-methylenedioxy-1H-indeno[1,2-c]isoquinoline Hydrochloride] | > 100 µM | < 0.01 µM | < 0.01 µM | 0.0281 µM | < 0.01 µM | 0.0721 µM | > 100 µM | – | 0.0505 µM | +++ (+++ and ++++, greater activity than compound A) | top1-mediated DNA cleavage band at site 37 (topoisomerase I): not seen; top1-mediated DNA cleavage band at site 44 (topoisomerase I): observed
7 | COc1cc2c(cc1OC)-c1ncc3cc4c(cc3c1C2)OCO4.Cl [Compound 9ba, 8,9-Dimethoxy-2,3-methylenedioxy-11H-indeno [1,2-c]isoquinoline hydrochloride] | 11.1 µM | 23.4 µM | > 100 µM | 25.3 µM | 63.4 µM | – | > 100 µM | 61.2 µM | 33.9 µM | +++ (+++ and ++++, greater activity than compound A) | top1-mediated DNA cleavage band at site 37 (topoisomerase I): not seen; top1-mediated DNA cleavage band at site 44 (topoisomerase I): observed
8 | Cl.c1c2c(cc3c1OCO3)-c1ncc3cc4c(cc3c1C2)OCO4 [Compound 9bb, 2,3-Methylenedioxy-8,9-methylenedioxy-11H-indeno[1,2-c]isoquinoline Hydrochloride] | 0.283 µM | 0.598 µM | 0.19 µM | – | < 0.01 µM | 0.227 µM | 0.0414 µM | 0.0232 µM | 0.272 µM | ++ (++, similar activity as compound A) | –
9 | COc1cc2c(c(OC)c1OC)-c1ncc3cc4c(cc3c1C2)OCO4.Cl [Compound 9bc, 7,8,9-Trimethoxy-2,3-methylenedioxy-11H-indeno[1,2-c]isoquinoline Hydrochloride] | 18.8 µM | – | 19.3 µM | 23.2 µM | 13.2 µM | 21.7 µM | 13.4 µM | 15.5 µM | 20.9 µM | 0 (0, no activity) | –
10 | COc1cc2c(cc1OC)-c1ncc3cc(OC)c(OC)c(OC)c3c1C2.Cl [Compound 9ca, 1,2,3,8,9-Pentamethoxy-11H-indeno[1,2-c]isoquinoline Hydrochloride] | 31.8 µM | 14 µM | 7.42 µM | 21.7 µM | 16.2 µM | 34.8 µM | 14.4 µM | 15.9 µM | 19.1 µM | – | Top 1 Cleavage (topoisomerase I; Table 2): + (+, weak activity)
11 | COc1cc2c(c(OC)c1OC)-c1ncc3cc(OC)c(OC)c(OC)c3c1C2.Cl [Compound 9cc, 1,2,3,7,8,9-Hexamethoxy-11H-indeno[1,2-c]isoquinoline Hydrochloride] | 33.5 µM | – | 17.4 µM | 26.6 µM | 20.8 µM | 35.4 µM | 17.6 µM | 19.1 µM | 24 µM | – | Top 1 Cleavage (topoisomerase I; Table 2, Hydrochloride): 0 (0, no activity)
12 | COc1ccc(OC)c2c3c(ncc12)-c1cc2c(cc1C3)OCO2.Cl [Compound 9db, 1,4-Dimethoxy-8,9-methylenedioxy-11H-indeno[1,2-c]isoquinoline Hydrochloride] | 0.249 µM | – | > 100 µM | 48.4 µM | > 100 µM | < 0.01 µM | > 100 µM | 26.9 µM | 24.5 µM | – | Top 1 Cleavage (topoisomerase I; Table 2): ++ (++, similar activity as compound A)
13 | COc1ccc2c(c1OC)-c1ncc3cc(OC)c(OC)c(OC)c3c1C2.Cl [Compound 9ea, 1,2,3,7,8-Pentamethoxy-11H-indeno[1,2-c]isoquinoline Hydrochloride] | 8.81 µM | – | 3.84 µM | – | – | 16 µM | – | 0.529 µM | 13.2 µM | – | Top 1 Cleavage (topoisomerase I; Table 2): ++ (++, similar activity as compound A)
14 | COc1cc2cnc3c(c2c(OC)c1OC)Cc1ccc2c(c1-3)OCO2.Cl [Compound 9eb, 1,2,3-Trimethoxy-7,8-methylenedioxy-11H-indeno[1,2-c]isoquinoline Hydrochloride] | 22.1 µM | – | 22.4 µM | 26.9 µM | > 100 µM | – | – | – | 26.3 µM | – | Top 1 Cleavage (topoisomerase I; Table 2): ++ (++, similar activity as compound A)
15 | COc1cc2c(c(OC)c1OC)-c1ncc3cc(OC)c(OC)c(OC)c3c1C2.Cl [Compound 9ec, 1,2,3,7,8,9-Hexamethoxy-11H-indeno[1,2-c]isoquinoline Hydrochloride] | – | – | – | – | – | – | – | – | – | – | GI50 (OVCAR-3; human): 21.5 µM; GI50 (HCT-116; human): 27.8 µM; pIC50 ([1]; Hydrochloride): 4.58; GI50 (UACC-62; human): 21.1 µM; GI50 (DU-145; human): 29.6 µM; GI50 (MDA-MB-435; human): 23 µM; GI50 (HOP-62; human): 28.5 µM; Top 1 Cleavage (topoisomerase I; Table 2, Hydrochloride): ++ (++, similar activity as compound A); GI50 (SN12C; human): 20.3 µM
